Test results as given in patent publication US10281476B2, “Methods to identify modulators of RyR calcium channels” (REGENTS OF THE UNIVERSITY OF MINNESOTA, priority 2013, dated 2019).
“Also recorded” adds a separate entry of the source. Where no end group is shown, it is not given here.

Tests used:
RyR2 [1] = biological target: T1, RyR2 (Rattus norvegicus, UniProt B0LPN4); assay: Fluorescent CaM binding at the Z-line and at RyR2 (FKBP12.6-CaM FRET) in permeabilized myocytes; set-up: These fluorescent proteins were added to saponin-permeabilized myocytes with or without pre-equilibration with saturating DPc10 concentration; endogenous in cells; host or cells: saponin-permeabilized rat ventricular myocytes
Experimental: These fluorescent proteins were added to saponin-permeabilized myocytes with or without pre-equilibration with saturating DPc10 concentration. […] We also did this with high [CaM] (500 nmol/L) that saturates RyR2 with CaM under control conditions (without DPc10; FIG. 17C). […] To test whether DPc10 and CaM bind at the same or nearby RyR2 sites, we measured FRET between CaM and DPc10.
CaM also binds to RyR2 and reduces RyR2 open probability, and works as a regulatory protein for RyR2 channel gating (Yamaguchi et al., J Biol Chem. 2003; 278:23480-23486; Balshaw et al., J Biol Chem. 2001; 276:20144-20153; Yang et al., Circ Res. 2014; 114:295-306); Yamaguchi et al., J Clin Invest. 2007; 117:1344-1353). We measured the effect of H2O2 on CaM-RyR2 binding affinity using F-CaM as in our previous reports (Yang et al., Circ Res. 2014; 114:295-306; Cornea et al., Proc Natl Acad Sci USA. 2009; 106:6128-6133).
(50 μmol/L) in media containing 50 μmol/L H2O2 (the same concentration used in myocyte pre-incubation experiments). This allowed F-CaM oxidation (and call this F-CaM^Ox). This was then diluted 2500-fold to 20 nmol/L F-CaM^Ox and no H2O2 was present in the myocyte bath.
As a further test of whether RyR2 oxidation alone inhibits subsequent CaM affinity, we removed H2O2 from the myocytes by repeated washing, prior to the addition of F-CaM.
Target sequence in this assay (B0LPN4 whole entry): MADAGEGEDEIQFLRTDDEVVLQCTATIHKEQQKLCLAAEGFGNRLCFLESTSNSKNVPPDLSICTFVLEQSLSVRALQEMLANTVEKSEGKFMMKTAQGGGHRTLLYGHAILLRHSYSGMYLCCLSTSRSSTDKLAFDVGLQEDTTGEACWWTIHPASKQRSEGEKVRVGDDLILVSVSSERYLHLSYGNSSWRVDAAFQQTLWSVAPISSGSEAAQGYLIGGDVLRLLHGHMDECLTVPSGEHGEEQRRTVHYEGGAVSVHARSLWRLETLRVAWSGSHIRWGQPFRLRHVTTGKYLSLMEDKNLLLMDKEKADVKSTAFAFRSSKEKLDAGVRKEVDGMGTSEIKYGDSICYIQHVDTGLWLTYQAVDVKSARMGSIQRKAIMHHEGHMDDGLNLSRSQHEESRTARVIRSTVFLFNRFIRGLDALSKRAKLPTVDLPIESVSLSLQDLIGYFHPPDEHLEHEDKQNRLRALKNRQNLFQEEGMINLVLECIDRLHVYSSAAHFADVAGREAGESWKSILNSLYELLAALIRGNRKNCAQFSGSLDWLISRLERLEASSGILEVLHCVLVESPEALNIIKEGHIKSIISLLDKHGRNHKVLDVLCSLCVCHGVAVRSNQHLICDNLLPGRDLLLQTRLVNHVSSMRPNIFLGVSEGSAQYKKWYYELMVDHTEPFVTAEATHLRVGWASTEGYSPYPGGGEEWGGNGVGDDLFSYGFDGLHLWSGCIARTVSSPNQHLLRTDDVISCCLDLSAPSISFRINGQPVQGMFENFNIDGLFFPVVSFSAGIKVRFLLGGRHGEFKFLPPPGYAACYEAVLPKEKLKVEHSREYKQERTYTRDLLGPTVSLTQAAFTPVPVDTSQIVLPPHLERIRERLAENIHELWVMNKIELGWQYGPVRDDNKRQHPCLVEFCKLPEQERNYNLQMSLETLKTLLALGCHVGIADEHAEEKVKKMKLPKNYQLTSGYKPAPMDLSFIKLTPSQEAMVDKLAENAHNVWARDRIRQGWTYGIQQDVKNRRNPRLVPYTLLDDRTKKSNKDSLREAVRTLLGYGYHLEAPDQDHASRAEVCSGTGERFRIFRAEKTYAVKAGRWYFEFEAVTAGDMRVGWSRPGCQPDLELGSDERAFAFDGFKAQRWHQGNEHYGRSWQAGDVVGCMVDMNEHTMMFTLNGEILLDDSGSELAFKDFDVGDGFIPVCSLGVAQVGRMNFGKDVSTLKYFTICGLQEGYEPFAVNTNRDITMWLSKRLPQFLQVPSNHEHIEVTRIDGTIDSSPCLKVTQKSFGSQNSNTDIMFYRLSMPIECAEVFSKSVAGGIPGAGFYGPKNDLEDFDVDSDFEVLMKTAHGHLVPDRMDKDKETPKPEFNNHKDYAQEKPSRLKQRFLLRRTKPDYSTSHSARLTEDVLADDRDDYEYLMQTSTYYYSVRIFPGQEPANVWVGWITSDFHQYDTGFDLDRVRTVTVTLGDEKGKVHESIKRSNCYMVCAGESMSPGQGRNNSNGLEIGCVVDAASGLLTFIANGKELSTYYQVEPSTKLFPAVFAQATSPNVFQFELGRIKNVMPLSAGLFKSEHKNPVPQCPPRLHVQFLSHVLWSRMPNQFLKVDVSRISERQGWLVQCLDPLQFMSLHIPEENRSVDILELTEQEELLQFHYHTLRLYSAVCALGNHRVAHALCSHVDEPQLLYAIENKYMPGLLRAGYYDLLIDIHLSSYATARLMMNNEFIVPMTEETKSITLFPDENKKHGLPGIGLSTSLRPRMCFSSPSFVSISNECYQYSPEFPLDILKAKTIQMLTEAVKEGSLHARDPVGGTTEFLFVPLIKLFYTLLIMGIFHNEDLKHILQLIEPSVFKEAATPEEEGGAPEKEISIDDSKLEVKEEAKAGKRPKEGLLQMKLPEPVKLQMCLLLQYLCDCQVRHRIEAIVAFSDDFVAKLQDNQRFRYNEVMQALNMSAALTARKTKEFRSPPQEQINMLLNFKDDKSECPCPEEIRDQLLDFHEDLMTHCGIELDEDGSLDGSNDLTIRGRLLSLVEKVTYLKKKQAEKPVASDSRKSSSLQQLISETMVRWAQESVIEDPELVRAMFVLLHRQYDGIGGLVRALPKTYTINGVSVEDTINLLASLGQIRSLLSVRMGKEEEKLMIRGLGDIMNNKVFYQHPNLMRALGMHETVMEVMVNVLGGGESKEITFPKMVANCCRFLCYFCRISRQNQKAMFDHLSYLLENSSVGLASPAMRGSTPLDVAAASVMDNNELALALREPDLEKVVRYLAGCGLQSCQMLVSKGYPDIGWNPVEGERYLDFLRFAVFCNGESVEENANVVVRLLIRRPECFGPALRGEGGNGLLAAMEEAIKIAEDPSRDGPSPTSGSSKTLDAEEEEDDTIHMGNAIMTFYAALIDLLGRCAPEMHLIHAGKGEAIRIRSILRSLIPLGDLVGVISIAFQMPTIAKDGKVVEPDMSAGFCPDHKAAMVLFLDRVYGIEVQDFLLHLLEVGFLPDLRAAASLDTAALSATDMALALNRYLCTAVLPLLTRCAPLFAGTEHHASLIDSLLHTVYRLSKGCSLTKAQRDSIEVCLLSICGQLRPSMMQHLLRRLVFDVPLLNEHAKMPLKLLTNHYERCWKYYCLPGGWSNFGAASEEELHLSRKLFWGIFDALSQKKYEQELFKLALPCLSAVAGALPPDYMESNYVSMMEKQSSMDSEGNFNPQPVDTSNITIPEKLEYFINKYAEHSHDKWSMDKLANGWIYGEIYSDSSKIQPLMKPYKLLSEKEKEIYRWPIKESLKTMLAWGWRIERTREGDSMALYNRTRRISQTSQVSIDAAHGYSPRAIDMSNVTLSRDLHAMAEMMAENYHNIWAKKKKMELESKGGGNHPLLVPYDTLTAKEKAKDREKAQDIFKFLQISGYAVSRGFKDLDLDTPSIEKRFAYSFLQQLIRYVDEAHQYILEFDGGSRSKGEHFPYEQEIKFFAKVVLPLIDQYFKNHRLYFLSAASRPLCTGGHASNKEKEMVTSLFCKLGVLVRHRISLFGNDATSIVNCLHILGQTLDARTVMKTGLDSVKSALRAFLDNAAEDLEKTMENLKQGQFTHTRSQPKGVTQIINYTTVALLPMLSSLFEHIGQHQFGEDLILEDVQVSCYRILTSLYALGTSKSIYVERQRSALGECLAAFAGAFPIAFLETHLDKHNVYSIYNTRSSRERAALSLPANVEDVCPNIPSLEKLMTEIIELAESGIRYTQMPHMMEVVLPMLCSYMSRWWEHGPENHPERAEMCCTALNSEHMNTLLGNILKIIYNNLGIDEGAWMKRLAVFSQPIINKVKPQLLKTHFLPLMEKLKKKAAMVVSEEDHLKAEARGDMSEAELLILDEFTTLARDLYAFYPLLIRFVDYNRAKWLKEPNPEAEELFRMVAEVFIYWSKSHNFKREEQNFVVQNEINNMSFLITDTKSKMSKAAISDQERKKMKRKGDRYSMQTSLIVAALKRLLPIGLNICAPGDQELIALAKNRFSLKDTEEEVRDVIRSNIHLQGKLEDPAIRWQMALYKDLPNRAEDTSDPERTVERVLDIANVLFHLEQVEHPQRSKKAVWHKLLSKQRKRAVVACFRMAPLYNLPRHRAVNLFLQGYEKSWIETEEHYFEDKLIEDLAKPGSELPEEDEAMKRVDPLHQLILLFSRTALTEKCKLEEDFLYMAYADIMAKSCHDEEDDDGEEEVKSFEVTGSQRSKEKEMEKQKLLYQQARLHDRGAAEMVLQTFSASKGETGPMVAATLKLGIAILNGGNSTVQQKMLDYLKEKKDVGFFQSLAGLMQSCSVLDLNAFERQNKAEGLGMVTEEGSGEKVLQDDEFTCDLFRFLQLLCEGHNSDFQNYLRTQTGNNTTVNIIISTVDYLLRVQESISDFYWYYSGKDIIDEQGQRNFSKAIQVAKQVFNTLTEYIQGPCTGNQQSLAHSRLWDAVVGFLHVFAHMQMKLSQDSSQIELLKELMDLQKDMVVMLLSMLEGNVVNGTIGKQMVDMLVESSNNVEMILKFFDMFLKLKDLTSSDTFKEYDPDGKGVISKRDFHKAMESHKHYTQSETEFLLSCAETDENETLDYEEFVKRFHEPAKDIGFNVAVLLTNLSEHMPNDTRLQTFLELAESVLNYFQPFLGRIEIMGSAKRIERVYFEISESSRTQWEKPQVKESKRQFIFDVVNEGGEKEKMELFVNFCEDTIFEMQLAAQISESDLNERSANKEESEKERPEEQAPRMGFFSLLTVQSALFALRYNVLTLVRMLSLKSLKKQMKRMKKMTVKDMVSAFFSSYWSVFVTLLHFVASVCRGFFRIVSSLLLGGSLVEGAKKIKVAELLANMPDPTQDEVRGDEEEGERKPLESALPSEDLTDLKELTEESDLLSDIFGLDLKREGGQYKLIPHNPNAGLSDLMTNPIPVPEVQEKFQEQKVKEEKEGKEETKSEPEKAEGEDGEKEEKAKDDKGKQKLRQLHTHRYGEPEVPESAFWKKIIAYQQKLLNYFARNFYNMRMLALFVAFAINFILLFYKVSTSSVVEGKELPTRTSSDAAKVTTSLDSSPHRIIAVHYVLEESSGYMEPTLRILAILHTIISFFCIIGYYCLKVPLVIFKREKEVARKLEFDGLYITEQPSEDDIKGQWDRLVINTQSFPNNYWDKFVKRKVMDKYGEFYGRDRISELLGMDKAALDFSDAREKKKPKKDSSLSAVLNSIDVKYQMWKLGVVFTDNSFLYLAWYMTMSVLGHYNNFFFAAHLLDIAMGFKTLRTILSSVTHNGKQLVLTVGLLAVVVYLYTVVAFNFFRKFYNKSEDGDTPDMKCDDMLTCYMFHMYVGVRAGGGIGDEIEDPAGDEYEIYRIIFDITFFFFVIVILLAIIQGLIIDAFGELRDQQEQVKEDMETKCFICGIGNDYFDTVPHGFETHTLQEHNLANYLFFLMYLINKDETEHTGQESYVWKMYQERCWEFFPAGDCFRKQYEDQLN

[2] = system: rat intact cardiomyocytes; assay: Ca2+ sparks and SR Ca2+ content in intact cardiomyocytes; format: cell-based; conditions: for Ca2+ spark Amplitude (ΔF/F0) / Ca2+ spark FDHM / Ca2+ spark FWHM: H2O2 50 μmol/L, dantrolene 1 μmol/L
Experimental: Intact cardiomyocytes were loaded with Fluo-4 AM (5 μmol/L, Molecular Probes) for 15 min in NT solution (in mM): NaCl 140, KCl 4, MgCl2 1, CaCl2 2, glucose 10, HEPES 5, pH 7.4. Fluo-4 AM was excited at 488 nm and emission was recorded using a 500-530 nm bandpass filter. Ca^2+sparks were recorded after field stimulation at 1 Hz, and caffeine (10mmol/L) was rapidly perfused for assessing the SR Ca^2+content. Both Ca^2+sparks and SR Ca^2+content were recorded by using a laser scanning confocal microscope (RADIANCE2000™ MP, Bio-Rad, UK). Data were analyzed using SparkMaster, an automated analysis program that allows rapid and reliable spark analysis (Picht et al., J. Am J Physiol Cell Physiol. 2007;293:C1073-C1081). Spontaneous Ca^2+waves were recorded using a BZ9000 fluorescence digital microscope (Keyence, Japan), after 10 sec from field electric stimulation at 1,2,3,4 and 5 Hz, as described previously (Fukuda et al., Biochem Biophys Res Commun. 2014;448:1-7).
Oxidation induced by hydrogen peroxide (H2O2) is expected to activate SR Ca^2+ leak through RyR2 at diastolic [Ca]i (Wagner et al., Circ Res. 2011; 108:555-65; Yan et al., Cardiovasc Res. 2008; 77:432-41). We used line-scan images to measure the effects of 50 μM/L H2O2 on Ca^2+ spark frequency (CaSpF) and SR Ca^2+ content (evaluated via rapid caffeine application) in intact cardiomyocytes after 1 Hz electric field stimulation (FIG. 25). […] Thus H2O2 may enhance diastolic RyR2 channel opening. […] So CaSpF normalized to SR Ca^2+ content, was significant increase by H2O2 treatment of myocytes (FIG. 25C).

RyR2 [3] = biological target: T1, RyR2; assay: HF647-DPc10 wash-in kinetics by FRET from F-FKBP (donor quench) in permeabilized myocytes; format: binding; set-up: These fluorescent proteins were added to saponin-permeabilized myocytes with or without pre-equilibration with saturating DPc10 concentration; endogenous in cells; host or cells: saponin-permeabilized rat ventricular myocytes; conditions: for effect on rate of HF647-DPc10 binding (τwash-in): H2O2 50 μmol/L pre-incubation, dantrolene 1 μmol/L in H2O2-treated myocytes
Experimental: The FRET pair we used in this consisted of ALEXA FLUOR™ 488 (donor) covalently attached to FKBP12.6 (F-FKBP) and HiLyte Fluor™647 (acceptor) covalently attached to DPc10 (F-DPc10).^8 To detect F-DPc10 specifically bound to RyR2, we measured donor fluorescence intensities through a 500-530 nm bandpass filter before and after equilibration with acceptor (donor quenching method). The FRET efficiency (E) was calculated according to: E=1-FDA/FD, Where FD and FDA are the fluorescence intensities of the donor-only and donor-plus-acceptor samples, respectively (Oda et al., Circ Res. 2013;112:487-497). Statistics
Next we tested whether RyR2 oxidation would increase HF647-DPc10 access. Here, we used FRET between F-FKBP as a donor and HF647-DPc10 as an acceptor, to detect DPc10 that specifically binds at RyR2 (Oda et al., Circ Res. 2013; 112:487-497).
Target sequence in this assay (B0LPN4 whole entry): as above
Target sequence in this assay (P68106 with tags, fused parts or gaps T15C/C23A/C77I partner): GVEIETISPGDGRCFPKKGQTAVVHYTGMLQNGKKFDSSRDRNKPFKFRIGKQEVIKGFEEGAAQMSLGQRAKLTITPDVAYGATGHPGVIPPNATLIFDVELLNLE

Compound	effect on CaM binding at the RyR2 and at the Z-line (RyR2 [1]; 20 nmol/L CaM, DPc10 pretreatment)	effect on CaM binding at the RyR2 (FRET) and at the Z-lines (total) (RyR2 [1]; 500 nmol/L AF568-34-CaM, DPc10-treated myocytes)	Ca2+ spark Amplitude (ΔF/F0) [2]	Ca2+ spark FDHM [2] [ms]	Ca2+ spark FWHM [2] [μm]	effect on H2O2-induced increase in frequency of Ca2+ sparks ([2]; dantrolene added before H2O2)	effect on control myocytes (Ca2+ sparks and SCW) ([2]; no H2O2)	restoration of F-CaM binding in H2O2-treated myocytes (RyR2 [1]; dantrolene 1 μmol/L, AIP 1 μmol/L)	effect on CaM-RyR2 affinity under control conditions (RyR2 [1]; no H2O2)	effect on rate of HF647-DPc10 binding (τwash-in) (RyR2 [3])	effect on maximal extent of quench (RyR2 [3]; dantrolene in H2O2-treated myocytes)	CaSpF compared with control ([2]; 50 μM/L H2O2, after 1 Hz stimulation)	SR Ca2+ content ([2]; intact myocytes)	reduction of F-CaM binding, myocytes pre-treated with H2O2 (RyR2 [1]; 50 μmol/L H2O2 not removed, F-CaM 20 nmol/L) [%]	reduction of F-CaM binding at the Z-line (RyR2 [1]; 50 μmol/L H2O2 removed by washing before F-CaM) [%]	effect on F-CaM binding at the Z-line (RyR2 [1]; 10 and 50 μmol/L H2O2 pretreatment, F-CaM 20 nmol/L)	reduction of RyR2 A-CaM binding (RyR2 [1]; subsaturating A-CaM, 50 μM H2O2) [%]	faster τwash-in of F-DPc10 (RyR2 [3]; after H2O2 treatment) [%]
GFCPDHKAAMVLFLDRVYGIEVQDFLLHLLEVGFLP [DPc10]	significantly reduced	reduced	–	–	–	–	–	–	–	–	–	–	–	–	–	–	–	–
O=C1CN(/N=C/c2ccc(-c3ccc([N+](=O)[O-])cc3)o2)C(O)=N1 [dantrolene]	–	–	0.55 ± 0.01 ΔF/F0	61.98 ± 3.35	1.93 ± 0.09	suppressed	had no effect	partially restore	Neither AIP nor dantrolene alter	restored; also recorded: reversed	reduced	–	–	–	–	–	–	–
OO [H2O2, hydrogen peroxide]	–	–	0.57 ± 0.01 ΔF/F0	67.05 ± 3.25	2.04 ± 0.07	–	–	–	–	significantly accelerated	–	significantly increased	did not significantly alter	50	32	reduced	~50	50
